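Here, GI50 denotes the concentration required for 50% inhibition of growth. TGI denotes the concentration required for complete inhibition of growth.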
Legend:
Assay in all cases: NCI tumour cell line growth inhibition, 384-well format
MDA-MB-468 breast = tested on: MDA-MB-468 breast
PC-3 prostate = tested on: PC-3 prostate
TK-10 renal = tested on: TK-10 renal
SN12C renal = tested on: SN12C renal
HCC-2998 colon = tested on: HCC-2998 colon
A549 NSCLC = tested on: A549 NSCLC
HOP-92 NSCLC = tested on: HOP-92 NSCLC
HOP-62 NSCLC = tested on: HOP-62 NSCLC
MCF7 breast = tested on: MCF7 breast
CAKI-1 renal = tested on: CAKI-1 renal
NCI-H23 lung = tested on: NCI-H23 lung
UO-31 renal = tested on: UO-31 renal
KM12 colon = tested on: KM12 colon
OVCAR-5 ovarian = tested on: OVCAR-5 ovarian
RXF 393 renal = tested on: RXF 393 renal
HCT-15 colon = tested on: HCT-15 colon
HS 578T breast = tested on: HS 578T breast
NCI-H460 NSCLC = tested on: NCI-H460 NSCLC
NCI-H522 lung = tested on: NCI-H522 lung
SW-620 colon = tested on: SW-620 colon
T-47D breast = tested on: T-47D breast
NCI/ADR-RES ovarian = tested on: NCI/ADR-RES ovarian
SF-539 CNS = tested on: SF-539 CNS
DU-145 prostate = tested on: DU-145 prostate
SK-OV-3 ovarian = tested on: SK-OV-3 ovarian
SR leukemia = tested on: SR leukemia
K-562 leukemia = tested on: K-562 leukemia
NCI-H226 lung = tested on: NCI-H226 lung
LOX IMVI melanoma = tested on: LOX IMVI melanoma
CCRF-CEM leukemia = tested on: CCRF-CEM leukemia
ACHN renal = tested on: ACHN renal
SK-MEL-28 melanoma = tested on: SK-MEL-28 melanoma
RPMI-8226 leukemia = tested on: RPMI-8226 leukemia
SNB-75 CNS = tested on: SNB-75 CNS
MDA-MB-231 breast = tested on: MDA-MB-231 breast
U251 glioblastoma = tested on: U251 glioblastoma
SF-295 CNS = tested on: SF-295 CNS
IGROV1 ovarian = tested on: IGROV1 ovarian
UACC-62 melanoma = tested on: UACC-62 melanoma
EKVX NSCLC = tested on: EKVX NSCLC
COLO 205 colon = tested on: COLO 205 colon
HT29 colon = tested on: HT29 colon
OVCAR-8 ovarian = tested on: OVCAR-8 ovarian
NCI-H322M lung = tested on: NCI-H322M lung
MALME-3M melanoma = tested on: MALME-3M melanoma
OVCAR-3 ovarian = tested on: OVCAR-3 ovarian
HL-60(TB) leukemia = tested on: HL-60(TB) leukemia
OVCAR-4 ovarian = tested on: OVCAR-4 ovarian
MDA-MB-435 melanoma = tested on: MDA-MB-435 melanoma
SK-MEL-5 melanoma = tested on: SK-MEL-5 melanoma
BT-549 breast = tested on: BT-549 breast
A498 renal = tested on: A498 renal
SNB-19 CNS = tested on: SNB-19 CNS
786-0 renal = tested on: 786-0 renal
M14 melanoma = tested on: M14 melanoma
UACC-257 melanoma = tested on: UACC-257 melanoma
SF-268 CNS = tested on: SF-268 CNS
MOLT-4 leukemia = tested on: MOLT-4 leukemia

## CNC(=O)c1cccc(-c2ccc3c(N4CCOC[C@@H]4C)nc(N4CCOC[C@@H]4C)nc3n2)c1
MDA-MB-468 breast
  GI50: 33.2 nM
  TGI: 277 nM
PC-3 prostate
  GI50: 71.9 nM
  TGI: 8300 nM
TK-10 renal
  GI50: 260 nM
  TGI: 3830 nM
SN12C renal
  GI50: 142 nM
  TGI: 8260 nM
HCC-2998 colon
  GI50: 662 nM
A549 NSCLC
  GI50: 152 nM
HOP-92 NSCLC
  GI50: 97.2 nM
  TGI: 1660 nM
HOP-62 NSCLC
  GI50: 269 nM
MCF7 breast
  GI50: 59.7 nM
CAKI-1 renal
  GI50: 214 nM
  TGI: 5520 nM
NCI-H23 lung
  GI50: 314 nM
UO-31 renal
  GI50: 505 nM
  TGI: 7860 nM
KM12 colon
  GI50: 156 nM
OVCAR-5 ovarian
  GI50: 139 nM
RXF 393 renal
  GI50: 330 nM
HCT-15 colon
  GI50: 187 nM
HS 578T breast
  GI50: 105 nM
  TGI: 381 nM
NCI-H460 NSCLC
  GI50: 37.9 nM
NCI-H522 lung
  GI50: 68.6 nM
SW-620 colon
  GI50: 635 nM
T-47D breast
  GI50: 20.4 nM
  TGI: 116 nM
NCI/ADR-RES ovarian
  GI50: 534 nM
SF-539 CNS
  GI50: 305 nM
DU-145 prostate
  GI50: 341 nM
SK-OV-3 ovarian
  GI50: 116 nM
  TGI: 1580 nM
SR leukemia
  GI50: 53.6 nM
  TGI: 239 nM
K-562 leukemia
  GI50: 480 nM
NCI-H226 lung
  GI50: 182 nM
  TGI: 857 nM
LOX IMVI melanoma
  GI50: 298 nM
  TGI: 1780 nM
CCRF-CEM leukemia
  GI50: 197 nM
ACHN renal
  GI50: 162 nM
SK-MEL-28 melanoma
  GI50: 131 nM
  TGI: 1170 nM
RPMI-8226 leukemia
  GI50: 12.8 nM
  TGI: 40.1 nM
SNB-75 CNS
  GI50: 121 nM
MDA-MB-231 breast
  GI50: 207 nM
U251 glioblastoma
  GI50: 637 nM
SF-295 CNS
  GI50: 112 nM
  TGI: 545 nM
IGROV1 ovarian
  GI50: 42.5 nM
  TGI: 284 nM
UACC-62 melanoma
  GI50: 152 nM
  TGI: 727 nM
EKVX NSCLC
  GI50: 161 nM
  TGI: 1870 nM
COLO 205 colon
  GI50: 154 nM
HT29 colon
  GI50: 546 nM
OVCAR-8 ovarian
  GI50: 370 nM
NCI-H322M lung
  GI50: 130 nM
MALME-3M melanoma
  GI50: 19 nM
  TGI: 161 nM
OVCAR-3 ovarian
  GI50: 257 nM
HL-60(TB) leukemia
  GI50: 1360 nM
OVCAR-4 ovarian
  GI50: 111 nM
  TGI: 595 nM
MDA-MB-435 melanoma
  GI50: 280 nM
  TGI: 1610 nM
SK-MEL-5 melanoma
  GI50: 62 nM
  TGI: 295 nM
BT-549 breast
  GI50: 213 nM
  TGI: 1360 nM
A498 renal
  GI50: 32.9 nM
  TGI: 374 nM
SNB-19 CNS
  GI50: 2330 nM
786-0 renal
  GI50: 348 nM
M14 melanoma
  GI50: 143 nM
UACC-257 melanoma
  GI50: 218 nM
  TGI: 958 nM
SF-268 CNS
  GI50: 433 nM
MOLT-4 leukemia
  GI50: 98.7 nM
  TGI: 1040 nM

Source: PubChem BioAssay (NCI)
